Results from US11109593B2, “Isoxazolin-5-one derivative and herbicide containing same as active ingredient” (HOKKO CHEMICAL INDUSTRY CO., LTD., priority 2017, dated 2021).

What was measured:
Type in all cases: in vivo
[1] = tested on: broad leaf weeds (Lindernia pyxidaria and Monochoria vaginalis); test: Test Example 2: herbicidal effect test by treatment during growing period in paddy rice cultivation (seven days after seeding); conditions: 120 g/10a active ingredient, assessed 14 days after treatment, dry weight vs untreated area
Procedure, shortened: (§1)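 Greenhouse flooded-pot test, seeds sown in puddled paddy soil; emulsion applied into water 7 d after seeding, 120 g a.i./10 a. Dry-weight-based herbicidal rate at 14 d, n=2.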

[2] = tested on: Scirpus juncoides; test: as above; conditions: 120 g/10a active ingredient, assessed 14 days after treatment, dry weight vs untreated area
Procedure, shortened: as §1

[3] = tested on: Echinochloa crus-galli; test: as above; conditions: 120 g/10a active ingredient, assessed 14 days after treatment, dry weight vs untreated area
Procedure, shortened: as §1

[4] = tested on: Echinochloa crus-galli; test: Test Example 3: herbicidal effect test by treatment of dry field farming soil (one day after seeding); conditions: 120 g/10a active ingredient, evaluated 14 days after treatment
Description: (§2) This test was conducted in a double system per one agent solution concentration area, and the herbicidal rates (%) were determined by the following equation (Math. 1) on 14 days after the treatment with the agents. Herbicidal Rate (%)={1-(Average Dry Weight (g) of Plant of Treated Area)/(Average Dry Weight (g) of Plant of Untreated Area)}×100 [Math. 1]
(§3) Herbicidal Effect Test by Treatment of Dry Field Farming Soil
(§4) Pots with a size of 36 cm^2 were filled with a dry field farming soil (alluvium). The soil of the top layer of 1 cm and seeds of weeds, namely southern crabgrass, Echinochloa crus-galli, Chenopodium album and Amaranthus viridis, 20 seeds each, were evenly mixed, and the top layer was gently pressed. Emulsions prepared using the compounds in Table 5 below according to Formulation Example 5 were diluted with water one day after seeding, and the water-diluted agent solutions were sprayed to the soil surfaces at a ratio of 100 liters per 10 ares. The converted amount of the applied active ingredient corresponded to 120 g per 10 ares. The herbicidal effects were evaluated by the same standard as that in Test Example 1 on 14 days after the treatment with the agents. […] The compound numbers in Table 5 are the same as those in Table 1 and Table 2 above.

[5] = tested on: Chenopodium album; test: as above; conditions: 120 g/10a active ingredient, evaluated 14 days after treatment
Description: as §2, §3, §4

[6] = tested on: Amaranthus viridis; test: as above; conditions: 120 g/10a active ingredient, evaluated 14 days after treatment
Description: as §2, §3, §4

[7] = tested on: southern crabgrass; test: as above; conditions: 120 g/10a active ingredient, evaluated 14 days after treatment
Description: as §2, §3, §4

[8] = tested on: broad leaf weeds (Lindernia pyxidaria and Monochoria vaginalis); test: Test Example 1: herbicidal effect test by treatment of rice paddy soil (immediately after seeding)
Procedure, shortened: (§5)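 Values are herbicidal rates (%) derived from average plant dry weight in treated versus untreated pots 14 days after treatment, run in duplicate. Treatment was a water-diluted emulsion dropped into flooded paddy soil right after sowing, at 120 g active ingredient per 10 ares.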

[9] = tested on: Scirpus juncoides; test: as above
Procedure, shortened: as §5

[10] = tested on: Echinochloa crus-galli; test: as above
Procedure, shortened: as §5

[11] = Lindernia pyxidaria, 120 g/10a active ingredient, dry weight vs untreated area, 14 days after treatment
[12] = Monochoria vaginalis, 120 g/10a active ingredient, dry weight vs untreated area, 14 days after treatment
[13] = 120 g/10a active ingredient, dry weight vs untreated area, 14 days after treatment
[14] = Lindernia pyxidaria, 120 g/10a active ingredient, 14 days after treatment, dry weight vs untreated area
[15] = Monochoria vaginalis, 120 g/10a active ingredient, 14 days after treatment, dry weight vs untreated area
[16] = 120 g/10a active ingredient, 14 days after treatment, dry weight vs untreated area

SMILES | Herbicidal rate (%) Lindernia pyxidaria [1] | Herbicidal rate (%) Monochoria vaginalis [1] | Herbicidal rate (%) Scirpus juncoides [2] | Herbicidal rate (%) Echinochloa crus-galli [3] | herbicidal rate, Echinochloa crus-galli [4] | herbicidal rate, Chenopodium album [5] | herbicidal rate, Amaranthus viridis [6] | herbicidal rate, southern crabgrass [7] | Herbicidal rate (%) Lindernia pyxidaria [8, 11] | Herbicidal rate (%) Monochoria vaginalis [8, 12] | Herbicidal rate (%) Scirpus juncoides [9, 13] | Herbicidal rate (%) Echinochloa crus-galli [10, 13] | Herbicidal rate (%) Lindernia pyxidaria [8, 14] | Herbicidal rate (%) Monochoria vaginalis [8, 15] | Herbicidal rate (%) Scirpus juncoides [9, 16] | Herbicidal rate (%) Echinochloa crus-galli [10, 16]
Cc1c(Cc2ccccc2N(C(=O)OC(C)C)S(=O)(=O)C(F)(F)F)c(=O)on1C(C)(C)C [Compound 1-641] | 90% | 90% | 90% | 90% | 90% | 90% | 90% | 90% | 90% | 90% | 90% | 90% |  |  |  | 
CCn1oc(=O)c(Cc2ccccc2NS(=O)(=O)C(F)(F)F)c1C [Compound 1-98] | 60% | 60% | 90% | 80% | 90% | 0% | 0% | 90% | 100% | 100% | 90% | 100% |  |  |  | 
Cc1c(Cc2ccccc2N(C(=O)c2ccccc2)S(=O)(=O)C(F)(F)F)c(=O)on1C(C)C [Compound 1-472] | 80% | 90% | 90% | 90% | 90% | 50% | 0% | 70% | 90% | 60% | 90% | 90% |  |  |  | 
Cc1c(Cc2ccccc2NS(=O)(=O)C(F)(F)F)c(=O)on1CC1(C)COC1 [Compound 1-229] | 60% | 90% | 90% | 70% | 40% | 40% | 60% | 60% | 80% | 100% | 90% | 70% |  |  |  | 
CCCOC(=O)N(c1ccccc1Cc1c(C)n(C(C)(C)C)oc1=O)S(=O)(=O)C(F)(F)F [Compound 1-631] | 90% | 90% | 90% | 90% | 90% | 90% | 90% | 90% | 90% | 90% | 90% | 90% |  |  |  | 
Cc1c(Cc2ccccc2N(S(=O)(=O)C(F)(F)F)S(=O)(=O)C(F)(F)F)c(=O)on1CC1(C)CO1 (stereo not drawn) [Compound 1-1051] | 40% | 80% | 90% | 90% | 80% | 60% | 80% | 80% |  |  |  |  | 60% | 80% | 100% | 80%
Cc1c(Cc2ccccc2N(S(=O)(=O)C(F)(F)F)S(=O)(=O)C(F)(F)F)c(=O)on1C1CCc2ccccc21 (stereo not drawn) [Compound 1-1049] | 60% | 70% | 70% | 80% | 90% | 50% | 50% | 80% |  |  |  |  | 90% | 80% | 90% | 90%
Cc1c(Cc2ccccc2NS(=O)(=O)C(F)(F)F)c(=O)on1CCOCC(C)C [Compound 1-156] | 100% | 100% | 90% | 80% | 80% | 60% | 60% | 80% | 100% | 80% | 100% | 100% |  |  |  | 
Cc1c(Cc2ccccc2NS(=O)(=O)C(F)(F)F)c(=O)on1C1CCCc2ccccc21 (stereo not drawn) [Compound 1-224] | 60% | 80% | 80% | 90% | 100% | 90% | 100% | 100% | 100% | 100% | 90% | 100% |  |  |  | 
Cc1c(Cc2ccccc2NS(=O)(=O)C(F)(F)F)c(=O)on1CCOc1ccccc1 [Compound 1-237] | 60% | 90% | 90% | 90% | 50% | 40% | 80% | 50% | 90% | 80% | 80% | 90% |  |  |  | 
CCC(C)Cn1oc(=O)c(Cc2ccccc2N(S(=O)(=O)C(F)(F)F)S(=O)(=O)C(F)(F)F)c1C (stereo not drawn) [Compound 1-972] | 80% | 100% | 90% | 100% | 90% | 100% | 100% | 90% | 100% | 100% | 100% | 100% |  |  |  | 
CCCCn1oc(=O)c(Cc2ccccc2N(S(=O)(=O)C(F)(F)F)S(=O)(=O)C(F)(F)F)c1C [Compound 1-969] | 60% | 90% | 90% | 100% | 90% | 40% | 40% | 80% | 100% | 80% | 90% | 100% |  |  |  | 
Cc1c(Cc2ccccc2NS(=O)(=O)C(F)(F)F)c(=O)on1CCCc1ccccc1 [Compound 1-221] | 40% | 40% | 40% | 60% | 70% | 40% | 50% | 50% | 70% | 60% | 80% | 90% |  |  |  | 
